Source: patent publication US9540647B2, “Methods and compositions for the treatment of cancer” (University of South Alabama, priority 2010, dated 2017)
“Also recorded” adds a separate entry of the source.

Legend:
OPN = assay: Secreted OPN in conditioned media of MDA-MB-435 cells (Western blot); format: cell-based, human; conditions: 10 μM and 20 μM cyclopamine vs DMSO
Protocol: Stable vector only and non-targeting (scrambled control) transfectants were also generated. Stable transfectants were selected on medium supplemented with 500 μg/ml Geneticin (Invitrogen). The four GLI1-knocked down clones chosen were based on the extent of GLI1 knockdown and were termed KO1, KO2, KO3, and KO4. The expression of OPN was restored in the KO1 cells by transfecting with pcDNA3.1-OPN. A corresponding vector-only transfectant was also generated. Transfectants were selected on medium containing Geneticin (500 μg/ml) and hygromycin (750 μg/ml). Serum-free conditioned medium harvested from approximately 3.0×10^6 cells after 24 hr was assayed for OPN by immunoblotting.
Western Blotting Analysis—Whole cell lysates were collected in Nonidet P-40 buffer (150 mM NaCl, 50 mM Tris, 1% Nonidet P-40). Isolation of cytosolic and nuclear fractions was done as previously reported (15). Total protein (30 μg) was resolved by SDS-PAGE gel and transferred to polyvinylidene difluoride membranes. […] Secreted OPN was assessed by loading an equal quantity of protein from the serum-free conditioned medium. […]

OPN promoter = OPN promoter reporter activity in MC3T3-E1 pre-osteoblastic cells; format: cell-based, murine
Protocol: Empty pGL3 vector was used as control. […] Readings were normalized to total protein content. Each parameter was studied in triplicate and the experiment repeated at least 3 times. The data are represented as percent luciferase activity, which was derived as a percent of the relative light units in treated groups compared with the untreated groups.
Empty pGL3 vector was used as control. Different concentrations of SHH ligand were added to the well the next day. Cells were lysed in Reporter Lysis buffer (Promega) 24 hrs post addition of SHH and both β-galactosidase assay and luciferase assays were done following manufacturer's protocol. Readings were normalized to β-galactosidase. Each parameter was studied in triplicate and the experiment repeated at least 3 times.

Row | Molecule | OPN in the secretome (OPN) | OPN promoter activity (OPN promoter)
1 | CC1=C2C[C@H]3[C@@H](CC=C4C[C@@H](O)CC[C@@]43C)[C@@H]2CC[C@]12O[C@@H]1C[C@H](C)CN[C@H]1[C@H]2C [cyclopamine] | decreased | –
2 | SHH: recombinant Sonic Hedgehog ligand (R & D Systems) | – | activate OPN promoter; also recorded: upregulation in OPN promoter activity
